{
  "source": "patent US10500198B2",
  "about": "“Bis-benzylidine piperidone proteasome inhibitor with anticancer activity” (The Johns Hopkins University, priority 2013, dated 2019)",
  "key": {"[1]": {"test_system": "U266 cells", "test": "Active caspase-3 by FACS", "assay_type": "cell-based", "details": "0.5 μM, 8 h", "description": "U266 cells were treated with RA195 (0.5 μM) and Bz(0.5 μM) for the period of 8 h. Cells were stained for PE-conjugated Caspase-3 antibody and measured active caspase-3 by FACS."}, "[2]": {"test_system": "HeLa cells", "test": "Active caspase-3 by FACS", "assay_type": "cell-based, human", "details": "1 μM, 8 h", "description": "HeLa cells were treated with RA195 (1 μM) and Bz(1 μM) for the period of 8 h. Cells were stained for PE-conjugated Caspase-3 antibody and measured active caspase-3 by FACS."}, "[3]": {"target": "T1, RPN13 Pru domain (Homo sapiens, UniProt Q16186)", "T1 construct": "RPN13 (1-150), which includes its Pru domain; made in house", "T1 sequence (Q16186 1-150)": "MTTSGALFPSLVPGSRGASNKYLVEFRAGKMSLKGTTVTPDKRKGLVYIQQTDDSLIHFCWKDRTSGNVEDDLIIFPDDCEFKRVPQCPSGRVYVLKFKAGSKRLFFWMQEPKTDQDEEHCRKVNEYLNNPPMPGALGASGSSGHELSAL", "test": "NMR and LC-MS of RA190-exposed RPN13", "assay_type": "binding", "details": "site-directed mutagenesis, NMR", "description": "By contrast, RPN13 Pru C^60,80,121.\nNMR spectra were acquired at 25° C. or 10° C. on Bruker NMR spectrometers operating at 850 or 900 MHz and equipped with cryogenically cooled probes. Processing was performed in NMRPipe^13 and the resulting spectra visualized with XEASY.^3 Protein concentrations were calculated by extinction coefficients based on amino acid composition and absorbance at 280 nm for protein dissolved in 6 M guanidine-HCl.\nRPN13 Pru domain and RA190-exposed RPN13, RPN13 Pru domain, RPN13 Pru C60,80,121A, and RPN13 Pru C88A at protein concentrations of 1 μg/μL were treated with formic acid and injected onto a Nano2D-LC HPLC system (Eksigent, Dublin, Calif.) equipped with an Agilent Zorbax 300SB C8 column (3 mm ID, 10 cm length, 3.5 μm particle size). The samples were subjected to 10 min of incubation in 98% H2O:2% CH3CN, a 20 min linear gradient at 10 μL/min flow rate to 75% H2O:25% CH3CN followed by a 12 min linear gradient to 5% H2O:95% CH3CN and then a 2 min hold. Analysis was conducted by positive ionization electrospray with an LTQ-Orbitrap Velos instrument (Thermo Scientific, Waltham, Mass.) and adducts were quantified utilizing the Orbitrap detector with a resolution of 100,000 at a scan range of 400-2000 m/z."}, "[4]": {"test_system": "HT3", "test": "Cell viability after 48-hr treatment (Table 1)", "assay_type": "cell-based", "details": "48-hr treatment; XTT assay; read-out: IC50, HT3", "method_in_brief": "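Viable cells were then quantified by a 1-2 hr MTS reaction with absorbance measured at 490 nm.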"}, "[5]": {"test_system": "HeLa cells", "test": "Cell surface HSP90 staining", "assay_type": "cell-based, human", "details": "24 hr", "text": "Cell surface HSP90 was detected by staining with purified anti-HSP90 mAb (Stressgen), followed by PE-conjugated anti-mouse IgG1. The data were acquired with a FACSCalibur and analyzed using CellQuest software."}, "[6]": {"test_system": "purified recombinant UCH37 (with or without RPN13) or purified RP", "test": "Ub-AMC hydrolysis assay", "assay_type": "biochemical", "description": "FIGS. 1 A-D show percent cell viability of RPMI-8226, ANBL6, and their respective in vitro selected bortezomib-resistant cell lines RPMI-8226-V10R and ANBL6-V10R as a function of 48 hr treatment with the indicated compounds. FIGS. 1 E-H show percent cell viability of indicated MM cell lines as a function of 48 hr treatment with the indicated compounds. […] Actin was used as a loading control. […] In FIG. 9C-E, purified 20S proteasomes were treated for 30 min with or without compounds (1 μM) prior to the addition of the specific fluorogenic substrate for chymotryptic (9C), tryptic (9D) or PGPH (9E) hydrolytic proteasome capacities. Mean±SD fluorescence associated with AMC released from the substrate was measured at 45 min. […] DMSO was added to all samples to a final concentration of 0.1% (upper panel). The effect of DMSO is highlighted by including ubiquitin—AMC (0.5 μM) hydrolysis with 2 nM UCH37 lacking DMSO (orange, bottom panel). In FIG. 9H, purified 19S RP (500 nM) in buffer was treated with corresponding compounds 30 min at 37° C. and AMC cleavage was measured with a fluorometer for 20 min. Ubal was used as a positive control.\nReaction mixtures contained 500 nM of the purified 19S RP (R&D Systems) in 19S enzyme assay buffer and 1 μM Ub-AMC. Release of free AMC by the enzyme reaction was determined by measuring its fluorescence at 380 nm (excitation) and 440 nm (emission). […]"}, "[7]": {"test_system": "4UbFL reporter", "test": "Proteasome inhibition in vivo (4UbFL reporter bioluminescence)"}, "[8]": {"test_system": "ES2-luciferase tumor", "test": "ES2-luciferase tumor in nude mice", "assay_type": "in vivo, mouse", "details": "10 mg/kg i.p. every day, 14 days", "text": "Prior to and at the end of the treatment, mice were imaged for bioluminescence. […] The mice were imaged before and at the end of the treatment for bioluminescence levels. We have previously described the susceptibility of human ovarian cancer lines to proteasome inhibition. […] Prior to and 7 and 14 days after initiation of treatment, the mice were imaged for luciferase activity.\nFor TC-1 tumors, C57BL/6 mice (8/group) were challenged subcutaneously with 5×10^4 TC-1 cells/mice. Tumors grew for approximately 7 days until they were palpable, whereupon the mice were weighed and treatment was initiated. Tumor size was measured with a digital caliper and calculated based on the formula: [largest diameter×(perpendicular diameter)2]π/6. Nude mice (8 per group) were inoculated with 1×10^6 EΩ-Luciferase cells i.p. in 100 μL PBS. At day 3 mice were imaged for basal level luminescence expression. […] NOG mice (5 per group) were inoculated with 1×10^6 NCI-H929-GFP-Luc cells i.v., and after 4 weeks, mice were imaged for their luciferase activity and divided into two groups."}, "[9]": {"test": "Pharmacokinetic measurements, plasma", "assay_type": "in vivo, mouse", "details": "20 mg/kg oral, BALB/c mice"}, "[10]": {"details": "i.m. electroporated 4UbFL, RA190 40 mg/kg i.p., bortezomib 1.5 mg/kg i.p."}},
  "data": [
    {"smiles": "Cl.NCCCC[C@H](NC(=O)OCC1c2ccccc2-c2ccccc21)C(=O)N1C/C(=C\\c2ccc(Cl)c(Cl)c2)C(=O)/C(=C/c2ccc(Cl)c(Cl)c2)C1", "note": "[RA195]", "values": [
      {"measurement": "active caspase-3", "setting": "[1]", "result": "caused an increase in caspase-3 expression"},
      {"measurement": "active caspase-3", "setting": "[2]", "result": "induced active capase expression"}
    ]},
    {"smiles": "Cl.N[C@@H](Cc1ccccc1)C(=O)N1CC(=Cc2ccc(Cl)c(Cl)c2)C(=O)C(=Cc2ccc(Cl)c(Cl)c2)C1", "note": "[RA190, 3,5-bis(3,4-dichlorobenzylidene)-1-(S-2-amino-3-phenyl)-piperidin-4-one-HCl salt]", "values": [
      {"measurement": "site of RA190 ligation", "setting": "[3]", "result": "ligates to RPN13 C88"},
      {"measurement": "IC50", "setting": "[4]", "result": "> 5", "unit": "µM"},
      {"measurement": "cells with cell-surface HSP90", "setting": "[5]", "result": 54.2, "unit": "%"},
      {"measurement": "degradation of Ub-AMC", "setting": "[6]", "result": "minimally affected"},
      {"measurement": "bioluminescence after oral administration", "setting": "[7]; 40 mg/kg orally, 4UbFL i.m. by electroporation or in skin via gene gun", "result": "increased the bioluminescence"},
      {"measurement": "4UbFL reporter in skin after topical administration", "setting": "[7]; 4% in Cremophor-EL topically", "result": "stabilized the 4UbFL reporter in skin"},
      {"measurement": "bioluminescence at 48 hr after treatment", "setting": "[7]; i.m. electroporated 4UbFL, RA190 40 mg/kg i.p.", "result": "significant increase in bioluminescence"},
      {"measurement": "bioluminescence compared to vehicle alone, 4 hr after treatment", "setting": "[7]; [10]", "result": 4, "unit": "fold"},
      {"measurement": "increase in bioluminescence, one day post-treatment", "setting": "[7]; [10]", "result": 4, "unit": "fold"},
      {"measurement": "ES2 tumor growth (bioluminescence)", "setting": "[8]", "result": "significantly inhibited"},
      {"measurement": "AUC", "setting": "[9]", "result": 634, "unit": "ng·h/mL"},
      {"measurement": "C1/F", "setting": "[9]", "result": 527, "unit": "mL/min/kg"},
      {"measurement": "Cmax", "setting": "[9]", "result": 133, "unit": "ng/mL"},
      {"measurement": "T1/2β", "setting": "[9]", "result": 2.6, "unit": "h"},
      {"measurement": "Ud/F", "setting": "[9]", "result": 117.3, "unit": "L/kg"}
    ]}
  ]
}
